Numbers after ± are expanded uncertainties.
Test: mn = molality of the nth substance listed, in mol/kg
Settings: 298.15 K, Ring tensiometer

CC(C)Cc1ccc(C(C)C(=O)[O-])cc1.[Na+] (stereo not drawn) [sodium ibuprofen] + O
surface tension liquid-gas (m1 = 0.0022): 62.35 ± 1.2 mN/m
surface tension liquid-gas (m1 = 0.00438): 60.76 ± 1.2 mN/m
surface tension liquid-gas (m1 = 0.00873): 58.91 ± 1.2 mN/m
surface tension liquid-gas (m1 = 0.0216): 54.52 ± 1.2 mN/m
surface tension liquid-gas (m1 = 0.032): 51.62 ± 1.2 mN/m
surface tension liquid-gas (m1 = 0.0423): 48.38 ± 1.3 mN/m
surface tension liquid-gas (m1 = 0.0524): 45.51 ± 1.2 mN/m
surface tension liquid-gas (m1 = 0.0671): 42.39 ± 1.2 mN/m
surface tension liquid-gas (m1 = 0.0815): 40.24 ± 1.2 mN/m
surface tension liquid-gas (m1 = 0.1): 38.27 ± 1.2 mN/m
surface tension liquid-gas (m1 = 0.118): 36.11 ± 1.2 mN/m
surface tension liquid-gas (m1 = 0.135): 34.85 ± 1.2 mN/m
surface tension liquid-gas (m1 = 0.16): 33.01 ± 1.1 mN/m
surface tension liquid-gas (m1 = 0.183): 32.02 ± 1.1 mN/m
surface tension liquid-gas (m1 = 0.206): 31.74 ± 1.1 mN/m
surface tension liquid-gas (m1 = 0.227): 31.72 ± 1.1 mN/m
surface tension liquid-gas (m1 = 0.247): 31.73 ± 1.1 mN/m
surface tension liquid-gas (m1 = 0.267): 31.72 ± 1.1 mN/m

Source: the NIST ThermoML archive (doi:10.1016/j.jct.2016.01.001)
